Source: patent publication US5525599A, “7-substituted-amino-3-substituted-3-cephem-4-carboxylic acids” (Eli Lilly and Company, priority 1993, dated 1996)
In brackets after ≈: the same amount, converted by molar mass. Read-outs that look alike come from different tables or passages of the source.

How the values were obtained:
E. coli (EC14) = experiment: In vitro activity (MIC), agar dilution method; type: cell-based; settings: Escherichia coli
Method: (§1) Cephalosporins 9a-o were assayed against a broad array of Gram-positive and Gram-negative bacteria in Mueller-Hinton agar by the 2-fold serial dilution method, (Kirst, H. A.; J. Antibiot. 1982, 35, 1675).
(§2) Test compounds were diluted to an appropriate range of concentrations in 0.1M phosphate buffer (pH 7), incorporated into Mueller-Hinton agar (difco) supplemented with 1% Bacto-Supplement C (Difco) at 50° C. and allowed to solidify in petri dishes. Fresh overnight cultures of test bacteria were diluted to approximately 1×10^4 cells/mL aand applied in […] to the surface of the agar plates. The inoculated plates were incubated overnight at 35° C. in ambient air. MIC endpoints were recorded as the lowest antibiotic concentrations that inhibited the development of visible bacterial growth on the plates.

E. coli (N10) = experiment: In vitro activity (MIC), agar dilution method; type: cell-based; settings: Escherichia coli
Method: as §1, §2

E. coli (TEM) = experiment: In vitro activity (MIC), agar dilution method; type: cell-based; settings: Escherichia coli
Method: as §1, §2

Enter. faecalis (2041) = experiment: In vitro activity (MIC), agar dilution method; type: cell-based; settings: Enterococcus faecalis; Enter. faecalis (2041), agar dilution; read-out: MIC
Method: as §1, §2

Enter. faecium (X66) = experiment: In vitro activity (MIC), agar dilution method; type: cell-based; settings: Enterococcus faecium; Enter. faecium (X66), agar dilution; read-out: MIC
Method: as §1, §2

H. influenzae (76) = experiment: In vitro activity (MIC), agar dilution method; type: cell-based; settings: Haemophilus influenzae; H. influenzae (76), agar dilution; read-out: MIC
Method: as §1, §2

H. influenzae (C.L.) = experiment: In vitro activity (MIC), agar dilution method; type: cell-based; settings: Haemophilus influenzae; H. influenzae (C.L.), agar dilution; read-out: MIC
Method: as §1, §2

K. pneumonia (KAE) = experiment: In vitro activity (MIC), agar dilution method; type: cell-based; settings: Klebsiella pneumoniae
Method: as §1, §2

K. pneumonia (X26) = experiment: In vitro activity (MIC), agar dilution method; type: cell-based; settings: Klebsiella pneumoniae; K. pneumonia (X26), agar dilution; read-out: MIC
Method: as §1, §2

K. pneumonia (X68) = experiment: In vitro activity (MIC), agar dilution method; type: cell-based; settings: Klebsiella pneumoniae
Method: as §1, §2

Staph. aureus (V41) = experiment: In vitro activity (MIC), agar dilution method; type: cell-based; settings: Staphylococcus aureus; Staph. aureus (V41), agar dilution; read-out: MIC
Method: as §1, §2

Staph. aureus (X1.1) = experiment: In vitro activity (MIC), agar dilution method; type: cell-based; settings: Staphylococcus aureus; Staph. aureus (X1.1), agar dilution; read-out: MIC
Method: as §1, §2

Staph. aureus (X400) = experiment: In vitro activity (MIC), agar dilution method; type: cell-based; settings: Staphylococcus aureus; Staph. aureus (X400), methicillin-resistant strain, agar dilution; read-out: MIC
Method: as §1, §2

Staph. epiderm. (222) = experiment: In vitro activity (MIC), agar dilution method; type: cell-based; settings: Staphylococcus epidermidis; Staph. epiderm. (222), methicillin-resistant strain, agar dilution; read-out: MIC
Method: as §1, §2

Staph. epiderm. (270) = experiment: In vitro activity (MIC), agar dilution method; type: cell-based; settings: Staphylococcus epidermidis, methicillin-resistant strain
Method: as §1, §2

Strept. pyogenes (C203) = experiment: In vitro activity (MIC), agar dilution method; type: cell-based; settings: Streptococcus pyogenes; Strept. pyogenes (C203), agar dilution; read-out: MIC
Method: as §1, §2

other Gram(-) bacteria = experiment: In vitro activity (MIC), agar dilution method; type: cell-based
[1] = tested on: 33 strains of methicillin-resistant staphylococci; experiment: Geometric mean MICs against 33 strains of methicillin-resistant staphylococci; type: cell-based; settings: for MIC: 33 strains, read-out: Geometric mean MIC; for MICs relative to clinically achievable concentrations for cephalosporins / change of MICs in the presence of NaCl: in words, 4% NaCl
Method: as §2
It is known that resistance to methicillin in staphylococci is often of the heterogeneous type and therefore not easily detected. […] (Goldstein, F. W.; Acar, J. J. Antimicrob. Chemother. […], 27, 549). […] J.; Drake T. A.; Rusnak, M. G.; Sande, M. A. J. Infect. Dis. 1984, 149, 894).

[2] = MICs against 4 strains of methicillin-resistant staphylococci; type: cell-based, Staphylococcus aureus and Staphylococcus epidermidis; settings: Staphylococcus aureus, read-out: minimal inhibitory concentrations (MICs)
Method: as §1, §2

Staph. aureus (S13E) = experiment: In vitro activity (MIC), agar dilution method; type: cell-based; settings: Staphylococcus aureus
Method: as §1, §2

[3] = E. coli (EC14), agar dilution, read-out: MIC
[4] = E. coli (N10), agar dilution, read-out: MIC
[5] = K. pneumonia (KAE), agar dilution, read-out: MIC
[6] = K. pneumonia (X68), agar dilution, read-out: MIC

SMILES | MIC (E. coli (EC14)) [µg/mL] | MIC (E. coli (N10)) [µg/mL] | MIC (E. coli (TEM)) [µg/mL] | MIC (Enter. faecalis (2041)) [µg/mL] | MIC (Enter. faecium (X66)) [µg/mL] | MIC (H. influenzae (76)) [µg/mL] | MIC (H. influenzae (C.L.)) [µg/mL] | MIC (K. pneumonia (KAE)) [µg/mL] | MIC (K. pneumonia (X26)) [µg/mL] | MIC (K. pneumonia (X68)) [µg/mL] | MIC (Staph. aureus (V41)) [µg/mL] | MIC (Staph. aureus (X1.1)) [µg/mL] | MIC (Staph. aureus (X400)) [µg/mL] | MIC (Staph. epiderm. (222)) [µg/mL] | MIC (Staph. epiderm. (270)) [µg/mL] | MIC (Strept. pyogenes (C203)) [µg/mL] | MIC (other Gram(-) bacteria) [µg/mL] | MIC ([1]; MHA + 4% NaCl, 35° C.) [µg/mL] | MIC ([1]; MHA) [µg/mL] | MIC [2] [µg/mL] | further results
CC(=O)OCC1=C(C(=O)O)N2C(=O)[C@@H](NC(=O)Cc3csc(-c4ccccc4O)n3)[C@H]2SC1 [9a, [6R-[6A,7B(R*)]]-3-[(Acetyloxy)methyl]-7-[[[2-(2-hydroxyphenyl)-4-thiazolyl]acetyl]amino]-8-oxo-5-thia-1-azabicyclo[4.2.0]oct-2-ene-2-carboxylic Acid] | 128 (≈ 261 µM) | 128 (≈ 261 µM) | 128 (≈ 261 µM) | 2 (≈ 4.09 µM) | 16 (≈ 32.7 µM) | 0.5 (≈ 1.02 µM) | 8 (≈ 16.3 µM) | 128 (≈ 261 µM) | 2 (≈ 4.09 µM) | 128 (≈ 261 µM) | 0.25 (≈ 0.511 µM) | 0.03 (≈ 0.0613 µM) | 2 (≈ 4.09 µM) | 4 (≈ 8.17 µM) | 0.125 (≈ 0.255 µM) | 1 (≈ 2.04 µM) | > 64 | 2.4 | 1.7 (≈ 3.47 µM) | ≤ 16 | MICs relative to clinically achievable concentrations for cephalosporins [1]: remained in the range usually considered to be clinically achievable concentrations for cephalosporins; change of MICs in the presence of NaCl [1]: only slightly elevated in the presence of NaCl
CC(=O)OCC1=C(C(=O)O)N2C(=O)[C@@H](NC(=O)Cc3csc(-c4c(O)cccc4O)n3)[C@H]2SC1 [9e, [6R-[6A,7B(R*)]]-3-[(Acetyloxy)methyl]-7-[[[2-(2,6-dihydroxyphenyl)-4-thiazolyl]acetyl]amino]-8-oxo-5-thia-1-azabicyclo[4.2.0]oct-2-ene-2-carboxylic Acid] | – | – | – | 4 (≈ 7.91 µM) | 4 (≈ 7.91 µM) | 4 (≈ 7.91 µM) | 4 (≈ 7.91 µM) | – | 0.5 (≈ 0.989 µM) | – | 16 (≈ 31.6 µM) | 8 (≈ 15.8 µM) | 16 (≈ 31.6 µM) | 0.5 (≈ 0.989 µM) | 4 (≈ 7.91 µM) | 0.03 (≈ 0.0593 µM) | > 64 | – | – | ≤ 16 | MIC (E. coli (EC14); [3]): 16 µg/mL (≈ 31.6 µM); MIC (E. coli (N10); [4]): 64 µg/mL (≈ 127 µM); MIC (K. pneumonia (KAE); [5]): 128 µg/mL (≈ 253 µM); MIC (K. pneumonia (X68); [6]): 16 µg/mL (≈ 31.6 µM); MIC (Staph. aureus (S13E)): 4 µg/mL (≈ 7.91 µM)
O=C(Cc1csc(-c2c(O)cccc2O)n1)N[C@@H]1C(=O)N2C(C(=O)O)=C(Cl)CS[C@H]12 [9f, [6R-[6A, 7B (R*)]]-3-Chloro-7-[[[2-(2,6-dihydroxyphenyl)-4-thiazolyl]acetyl]amino]-8-oxo-5-thia-1-azabicyclo[4.2.0]oct-2-ene-2-carboxylic Acid] | – | – | – | 8 (≈ 17.1 µM) | 8 (≈ 17.1 µM) | 1 (≈ 2.14 µM) | 1 (≈ 2.14 µM) | – | 0.5 (≈ 1.07 µM) | – | 16 (≈ 34.2 µM) | 16 (≈ 34.2 µM) | 16 (≈ 34.2 µM) | 2 (≈ 4.27 µM) | 8 (≈ 17.1 µM) | 0.06 (≈ 0.128 µM) | > 64 | – | – | – | MIC (E. coli (EC14); [3]): 32 µg/mL (≈ 68.4 µM); MIC (E. coli (N10); [4]): 32 µg/mL (≈ 68.4 µM); MIC (K. pneumonia (KAE); [5]): 128 µg/mL (≈ 274 µM); MIC (K. pneumonia (X68); [6]): 32 µg/mL (≈ 68.4 µM)
CC(=O)OCC1=C(C(=O)O)N2C(=O)[C@@H](NC(=O)Cc3csc(-c4ncccc4O)n3)[C@H]2SC1 [9i, [6R-[6A,7B(R*)]]-3-[(Acetyloxy)methyl]-7-[[[2-(3-hydroxy-2-pyridinyl)-4-thiazolyl]acetyl]amino]-8-oxo-5-thia-1-azabicyclo[4.2.0]oct-2-ene-2-carboxylicAcid] | 128 (≈ 261 µM) | 128 (≈ 261 µM) | 128 (≈ 261 µM) | 8 (≈ 16.3 µM) | 8 (≈ 16.3 µM) | 2 (≈ 4.08 µM) | 4 (≈ 8.15 µM) | 128 (≈ 261 µM) | 1 (≈ 2.04 µM) | 128 (≈ 261 µM) | 0.5 (≈ 1.02 µM) | 0.125 (≈ 0.255 µM) | 4 (≈ 8.15 µM) | 0.125 (≈ 0.255 µM) | 0.5 (≈ 1.02 µM) | 0.015 (≈ 0.0306 µM) | > 64 | 8 | 4.8 (≈ 9.79 µM) | ≤ 16 | MIC (Staph. aureus (S13E)): 2 µg/mL (≈ 4.08 µM); MICs relative to clinically achievable concentrations for cephalosporins [1]: remained in the range usually considered to be clinically achievable concentrations for cephalosporins; change of MICs in the presence of NaCl [1]: only slightly elevated in the presence of NaCl
